From ChEMBL document CHEMBL1151083, “Synthesis & characterization of N-amino-glyphosate as a potent analog inhibitor of E. coli EPSP synthase” (Bioorg Med Chem Lett, 1993) come the findings set out here.

Experiment [1] addresses T1, 3-phosphoshikimate 1-carboxyvinyltransferase (Escherichia coli K-12, UniProt P0A6D3).
T1 sequence (P0A6D3 whole entry): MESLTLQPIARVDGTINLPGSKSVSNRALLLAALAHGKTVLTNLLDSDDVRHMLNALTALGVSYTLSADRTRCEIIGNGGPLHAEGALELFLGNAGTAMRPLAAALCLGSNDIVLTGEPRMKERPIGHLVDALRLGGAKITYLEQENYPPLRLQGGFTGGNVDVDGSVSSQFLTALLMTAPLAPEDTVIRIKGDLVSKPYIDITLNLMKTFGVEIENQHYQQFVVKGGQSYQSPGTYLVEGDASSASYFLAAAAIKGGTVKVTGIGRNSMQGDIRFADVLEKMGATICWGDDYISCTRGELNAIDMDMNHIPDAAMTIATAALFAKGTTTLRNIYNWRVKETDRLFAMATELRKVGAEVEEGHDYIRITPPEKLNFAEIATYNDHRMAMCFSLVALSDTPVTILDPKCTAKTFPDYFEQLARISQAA
The experiment in a line: Tested for the inhibition against Escherichia coli 5-enolpyruvyl-shikimate-3-phosphate synthase.

Experiment [2] concerns the target T1, 3-phosphoshikimate 1-carboxyvinyltransferase. Put plainly: Tested for the inhibition against Escherichia coli 5-enolpyruvyl-shikimate-3-phosphate synthase versus phosphoenolpyruvate.
Experiment [3] shares this target. Put plainly: Tested for the dissociation constant against Escherichia coli 5-enolpyruvyl-shikimate-3-phosphate synthase.
The target of experiment [4] is T2, 3-phosphoshikimate 1-carboxyvinyltransferase (Escherichia coli K-12) (UniProt P0A6D3).
T2 sequence (whole entry): T1 sequence (P0A6D3 whole entry)
Description: Tested for the dissociation rate against Escherichia coli 5-enolpyruvyl-shikimate-3-phosphate synthase

Experiment [5] deals with T2, 3-phosphoshikimate 1-carboxyvinyltransferase (Escherichia coli K-12). This is another data set of the same source.
Description: Tested for the rate of association against Escherichia coli 5-enolpyruvyl-shikimate-3-phosphate synthase

Each structure is given as a SMILES string. A value given as a limit tells only on which side of the number the result lay.

The term IC50 denotes the concentration that gives 50% inhibition. High values mean lower potency, low ones higher potency. One may read the Ki as a dissociation constant, usually derived from enzyme kinetics or from competition with a known ligand. The term Kd denotes a measure of binding affinity in units of concentration.

Molecule `O=C(O)CNC[PH](=O)O` displayed a 50% inhibitory concentration (IC50) in experiment [1] of 700 µM.
In experiment [1], `CN(CC(=O)O)CP(=O)(O)O` gave a 50% inhibitory concentration (IC50) of 150 µM. Also, the Ki in experiment [2] is 78 µM.
`COC(=O)CNCP(=O)(O)O` had an IC50 in experiment [1] greater than 1 µM.
On the same count and under the same terms, with `CC(NCC(=O)O)P(=O)(O)O` (stereo not given) the figure was greater than 80 µM.
In experiment [3], `NN(CC(=O)O)CP(=O)(O)O` had a Kd of 0.5 µM. Moreover, the k off in experiment [4] amounted to 0.16 s⁻¹. This molecule returned a k on in experiment [5] of 320000 M⁻¹ s⁻¹. Moreover, the affinity in experiment [2] corresponds to a Ki of 0.61 µM.
For `NC(CC(=O)O)CP(=O)(O)O` (stereo not given), the IC50 in experiment [1] was greater than 80 µM.
In turn, `O=C(O)CNCP(=O)(O)O` displayed a k off in experiment [4] of 0.12 s⁻¹. Also, the k on in experiment [5] turned out to be 780000 M⁻¹ s⁻¹.
`O=NN(CC(=O)O)CP(=O)(O)O`: in experiment [2], the affinity, expressed as Ki, was 2.2 µM.
The molecule `CC(NCP(=O)(O)O)C(=O)O` (stereo not given) had a half-maximal inhibitory concentration (IC50) in experiment [1] greater than 80 µM.
On to `O=C(O)CN(O)CP(=O)(O)O`, for which the inhibition constant (Ki) in experiment [2] was found to be 2.2 µM.
